{"source": "patent EP4796536A1", "about": "“CRYSTAL FORMS OF COMPOUND HAVING FUSED FIVE- AND SIX-MEMBERED RINGS, PREPARATION METHOD THEREFOR, AND USE THEREOF” (Hangzhou Polymed Biopharmaceuticals, Inc., priority 2023, dated 2025)", "key": {"[1]": {"experiment": "Physicochemical stability of crystal forms (HPLC purity, XRPD)"}, "[2]": {"experiment": "Mechanical stability: dry grinding, wet grinding, tableting (XRPD)", "assay_type": "physicochemical", "description": "Dry grinding: approximately 10 mg of the starting sample was ground for 3 minutes in a mortar, and then subjected to XRPD testing.\nWet grinding: approximately 10 mg of the starting sample was ground with 1 to 2 drops of solvent for 3 minutes in a mortar, and then subjected to XRPD testing.\nTableting experiment: approximately 10 mg of the starting sample was compressed at 20 MPa for 3 minutes, and then subjected to XRPD testing."}, "[3]": {"experiment": "Hygroscopicity by dynamic vapor sorption (DVS)", "assay_type": "physicochemical", "description": "Samples are analyzed for hygroscopicity using Intrinsic DVS ([…], UK). Approximately 10 to 30 mg of sample is used for testing. The testing chamber is controlled at a temperature of 25 ± 1°C with the specific testing parameters shown below: […]"}, "[4]": {"experiment": "Solubility of crystal forms in buffers, biorelevant media and water (HPLC, XRPD of residual solid)", "assay_type": "physicochemical", "details": "for pH (24 h): 5 mg/mL suspension stirred at 37°C, pH of the solution at 24 h; for Solubility at 37°C (mg/mL) 2 h: 120 min; for Solubility at 37°C (mg/mL) 2 h / Solubility at 37°C (mg/mL) 24 h / solubility at 2 h / solubility at 24 h: 37°C; for solubility at 2 h: read-out: Solubility at 37°C (mg/mL) 2 h; for solubility at 24 h: read-out: Solubility at 37°C (mg/mL) 24 h", "description": "The solubility of the two crystal forms at 2 hours and 24 hours and the pH of the solution at 24 hours were tested. The solid was filtered, and the resulting solid was tested for XRPD."}, "[5]": {"details": "Dry grinding, 3 minutes in a mortar, no solvent"}, "[6]": {"details": "Tableting, 20 MPa for 3 minutes, solvent EA"}, "[7]": {"details": "Wet grinding, solvent EtOH, 3 minutes in a mortar"}, "[8]": {"details": "Wet grinding, solvent Water, 3 minutes in a mortar"}}, "note": "Read-outs that look alike come from different tables or passages of the source.", "data": [{"smiles": "COc1cc2nn(C3CC4(CCN(C(=O)C5CCN(c6ccc7c(c6)C(=O)N(C6CCC(=O)NC6=O)C7=O)CC5)CC4)C3)cc2cc1NC(=O)c1cccc(C(F)(F)F)n1", "note": "(single isomer, unassigned) [crystal form I]", "values": [{"measurement": "Purity (%)", "setting": "[1]; 25°C/60% RH, open, 1 week", "value": 98.96, "unit": "%"}, {"measurement": "XRPD", "setting": "[1]; 25°C/60% RH, open, 1 week", "value": "Unchanged"}, {"measurement": "Purity (%)", "setting": "[1]; 40°C/75% RH, open, 1 week", "value": 98.96, "unit": "%"}, {"measurement": "XRPD", "setting": "[1]; 40°C/75% RH, open, 1 week", "value": "Unchanged"}, {"measurement": "Purity (%)", "setting": "[1]; 60°C, closed, 1 week", "value": 98.80, "unit": "%"}, {"measurement": "XRPD", "setting": "[1]; 60°C, closed, 1 week", "value": "Unchanged"}, {"measurement": "Purity (%)", "setting": "[1]; Initial", "value": 98.97, "unit": "%"}, {"measurement": "Purity (%)", "setting": "[1]; Light, closed, 10 days", "value": 98.96, "unit": "%"}, {"measurement": "XRPD", "setting": "[1]; Light, closed, 10 days", "value": "Unchanged"}, {"measurement": "Purity (%)", "setting": "[1]; Light, control, 10 days", "value": 98.97, "unit": "%"}, {"measurement": "XRPD", "setting": "[1]; Light, control, 10 days", "value": "Unchanged"}, {"measurement": "change in the crystal form after stability testing", "setting": "[1]; all stability conditions", "value": "no change in the crystal form"}, {"measurement": "degradation", "setting": "[1]; closed stability chamber at 60°C for 1 week", "value": 0.17, "unit": "%"}, {"measurement": "degradation", "setting": "[1]; other stability conditions (25°C/60% RH, 40°C/75% RH 1 week; light 10 days)", "value": "no significant degradation"}, {"measurement": "Solid color", "setting": "[2]; [5]", "value": "Yellow, essentially no change"}, {"measurement": "XRPD results", "setting": "[2]; [5]", "value": "Crystal form I (low degree of crystallinity)"}, {"measurement": "Solid color", "setting": "[2]; [6]", "value": "Yellow, essentially no change"}, {"measurement": "XRPD results", "setting": "[2]; [6]", "value": "Crystal form I"}, {"measurement": "Solid color", "setting": "[2]; [7]", "value": "Yellow, essentially no change"}, {"measurement": "XRPD results", "setting": "[2]; [7]", "value": "Crystal form I"}, {"measurement": "Solid color", "setting": "[2]; [8]", "value": "Yellow, essentially no change"}, {"measurement": "XRPD results", "setting": "[2]; [8]", "value": "Crystal form I"}, {"measurement": "degree of crystallinity of the solid", "setting": "[2]; after dry grinding", "value": "reduction in the degree of crystallinity"}, {"measurement": "crystal form of the solid (XRPD)", "setting": "[2]; after dry grinding, wet grinding, and tableting", "value": "no change in the crystal form"}, {"measurement": "Solid color", "setting": "[2]; after grinding and tableting experiments, versus starting sample", "value": "essentially no change in the solid color"}, {"measurement": "degree of crystallinity of the solid", "setting": "[2]; after wet grinding and tableting", "value": "almost no change in the degree of crystallinity"}, {"measurement": "hygroscopic weight gain", "setting": "[3]; 80% RH, 25°C", "value": 0.3629, "unit": "%"}, {"measurement": "hygroscopicity evaluation", "setting": "[3]; DVS, based on weight gain at 80% RH", "value": "slightly hygroscopic"}, {"measurement": "crystal form after DVS testing", "setting": "[3]; after DVS testing", "value": "no change in the crystal form"}, {"measurement": "pH (24 h)", "setting": "[4]; FaSSIF", "value": 6.501}, {"measurement": "Solubility at 37°C (mg/mL) 2 h", "setting": "[4]; FaSSIF", "value": 0.00141, "unit": "mg/mL"}, {"measurement": "solubility", "setting": "[4]; FeSSIF, stirring at 37°C for 24 hours, 1440 min", "value": "approximately 0.01 mg/mL"}, {"measurement": "pH (24 h)", "setting": "[4]; FeSSIF", "value": 5.085}, {"measurement": "Solubility at 37°C (mg/mL) 24 h", "setting": "[4]; FeSSIF, 1440 min", "value": 0.01099, "unit": "mg/mL"}, {"measurement": "pH (24 h)", "setting": "[4]; SGF", "value": 1.266}, {"measurement": "pH (24 h)", "setting": "[4]; Water", "value": 6.749}, {"measurement": "Solubility at 37°C (mg/mL) 2 h", "setting": "[4]; Water", "value": 0.00089, "unit": "mg/mL"}, {"measurement": "Solubility at 37°C (mg/mL) 24 h", "setting": "[4]; Water, 1440 min", "value": 0.00025, "unit": "mg/mL"}, {"measurement": "Crystal form", "setting": "[4]; XRPD of residual solid after stirring in FaSSIF at 37°C for 24 hours", "value": "Crystal form I"}, {"measurement": "Crystal form", "setting": "[4]; XRPD of residual solid after stirring in FeSSIF at 37°C for 24 hours", "value": "Crystal form I"}, {"measurement": "Crystal form", "setting": "[4]; XRPD of residual solid after stirring in SGF at 37°C for 24 hours", "value": "Crystal form I"}, {"measurement": "Crystal form", "setting": "[4]; XRPD of residual solid after stirring in Water at 37°C for 24 hours", "value": "Crystal form I"}, {"measurement": "Crystal form", "setting": "[4]; XRPD of residual solid after stirring in pH 1.2 buffer at 37°C for 24 hours", "value": "Crystal form I"}, {"measurement": "Crystal form", "setting": "[4]; XRPD of residual solid after stirring in pH 3.0 buffer at 37°C for 24 hours", "value": "Crystal form I"}, {"measurement": "Crystal form", "setting": "[4]; XRPD of residual solid after stirring in pH 4.5 buffer at 37°C for 24 hours", "value": "Crystal form I"}, {"measurement": "Crystal form", "setting": "[4]; XRPD of residual solid after stirring in pH 6.8 buffer at 37°C for 24 hours", "value": "Crystal form I"}, {"measurement": "Crystal form", "setting": "[4]; XRPD of residual solid after stirring in pH 7.4 buffer at 37°C for 24 hours", "value": "Crystal form I"}, {"measurement": "solubility at 2 h", "setting": "[4]; buffer, pH 1.2, pH 1.2 buffer", "value": 0.00084, "unit": "mg/mL"}, {"measurement": "solubility at 24 h", "setting": "[4]; buffer, pH 1.2, pH 1.2 buffer", "value": 0.00081, "unit": "mg/mL"}, {"measurement": "solubility at 2 h", "setting": "[4]; buffer, pH 3, pH 3.0 buffer", "value": 0.00048, "unit": "mg/mL"}, {"measurement": "solubility at 24 h", "setting": "[4]; buffer, pH 3, pH 3.0 buffer", "value": 0.00077, "unit": "mg/mL"}, {"measurement": "solubility at 2 h", "setting": "[4]; buffer, pH 4.5, pH 4.5 buffer", "value": 0.00019, "unit": "mg/mL"}, {"measurement": "solubility at 24 h", "setting": "[4]; buffer, pH 4.5, pH 4.5 buffer", "value": 0.00087, "unit": "mg/mL"}, {"measurement": "solubility at 2 h", "setting": "[4]; buffer, pH 6.8, pH 6.8 buffer", "value": 0.00046, "unit": "mg/mL"}, {"measurement": "solubility at 24 h", "setting": "[4]; buffer, pH 6.8, pH 6.8 buffer", "value": 0.00084, "unit": "mg/mL"}, {"measurement": "solubility at 2 h", "setting": "[4]; buffer, pH 7.4, pH 7.4 buffer", "value": 0.00101, "unit": "mg/mL"}, {"measurement": "solubility at 24 h", "setting": "[4]; buffer, pH 7.4, pH 7.4 buffer", "value": 0.00079, "unit": "mg/mL"}, {"measurement": "solubility at 24 h", "setting": "[4]; fassif", "value": 0.00148, "unit": "mg/mL"}, {"measurement": "solubility at 2 h", "setting": "[4]; fessif", "value": 0.004, "unit": "mg/mL"}, {"measurement": "pH (24 h)", "setting": "[4]; pH 1.2 buffer", "value": 1.234}, {"measurement": "pH (24 h)", "setting": "[4]; pH 3.0 buffer", "value": 3.145}, {"measurement": "pH (24 h)", "setting": "[4]; pH 4.5 buffer", "value": 4.583}, {"measurement": "pH (24 h)", "setting": "[4]; pH 6.8 buffer", "value": 6.805}, {"measurement": "pH (24 h)", "setting": "[4]; pH 7.4 buffer", "value": 7.439}, {"measurement": "solubility at 2 h", "setting": "[4]; sgf", "value": 0.00158, "unit": "mg/mL"}, {"measurement": "solubility at 24 h", "setting": "[4]; sgf", "value": 0.00376, "unit": "mg/mL"}]}]}
